Active and inactive are the calls of the source. The calls are words filed in the database; no cut-off is given here.
Experiments:
Histamine H1 receptor = Histamine H1 receptor (Cavia porcellus, UniProt P31389); test: Displacement of [3H]-mepyramine from histamine H1 receptor in guinea pig cerebellum homogenates incubated for 60 mins by Cheng and Prusoff equation analysis by scintillation counting analysis; format: tissue-based
Histamine H3 receptor = Histamine H3 receptor (Rattus norvegicus, UniProt Q9QYN8); test: Displacement of [3H]-N-alpha-methylhistamine from histamine H3 receptor in rat cerebral cortex homogenates incubated for 60 mins by Cheng and Prusoff equation analysis by scintillation counting analysis
Rattus norvegicus [1] = test: Anti-nociceptive activity in Sprague-Dawley rat assessed as reduction in total time spent licking injected paw during early phase (0 to 5 mins) at 1 mg/kg, po dosed 1 hr before formalin injection; format: functional, organism-based
Rattus norvegicus [2] = test: Anti-nociceptive activity in Sprague-Dawley rat assessed as reduction in total time spent licking injected paw during delayed phase (15 to 45 mins) at 1 mg/kg, po dosed 1 hr before formalin injection; format: functional, organism-based
Rattus norvegicus [3] = test: Anti-nociceptive activity in Sprague-Dawley rat assessed as reduction in total time spent licking injected paw during early phase (0 to 5 mins) at 40 mg/kg, po dosed 1 hr before formalin injection; format: functional, organism-based
Rattus norvegicus [4] = test: Anti-nociceptive activity in Sprague-Dawley rat assessed as reduction in total time spent licking injected paw during delayed phase (15 to 45 mins) at 40 mg/kg, po dosed 1 hr before formalin injection; format: functional, organism-based
[5] = Acute toxicity in KM mouse assessed as effect on survival at 50 to 1000 mg/kg, po after 24 hrs; format: organism-based; details: in vivo
Rattus norvegicus [6] = test: Anti-nociceptive activity in Sprague-Dawley rat assessed as reduction in total time spent licking injected paw during early phase (0 to 5 mins) at 1 to 10 mg/kg, po dosed 1 hr before formalin injection; format: functional
Rattus norvegicus [7] = test: Anti-nociceptive activity in Sprague-Dawley rat assessed as reduction in total time spent licking injected paw during delayed phase (15 to 45 mins) at 1 to 10 mg/kg, po dosed 1 hr before formalin injection; format: functional

Sequence of Histamine H3 receptor (Q9QYN8 whole entry): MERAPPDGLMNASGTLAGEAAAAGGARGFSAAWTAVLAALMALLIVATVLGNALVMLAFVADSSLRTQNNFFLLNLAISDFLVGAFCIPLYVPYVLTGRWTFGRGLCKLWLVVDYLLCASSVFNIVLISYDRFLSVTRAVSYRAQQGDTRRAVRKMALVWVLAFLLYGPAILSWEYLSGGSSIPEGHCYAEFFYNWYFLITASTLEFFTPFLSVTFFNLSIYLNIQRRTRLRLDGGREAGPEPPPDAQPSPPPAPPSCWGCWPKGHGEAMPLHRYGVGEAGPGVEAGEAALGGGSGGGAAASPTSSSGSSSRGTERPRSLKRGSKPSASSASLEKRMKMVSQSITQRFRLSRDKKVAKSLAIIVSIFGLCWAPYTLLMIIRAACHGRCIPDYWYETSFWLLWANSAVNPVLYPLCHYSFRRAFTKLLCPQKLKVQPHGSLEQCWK
Sequence of Histamine H1 receptor (P31389 whole entry): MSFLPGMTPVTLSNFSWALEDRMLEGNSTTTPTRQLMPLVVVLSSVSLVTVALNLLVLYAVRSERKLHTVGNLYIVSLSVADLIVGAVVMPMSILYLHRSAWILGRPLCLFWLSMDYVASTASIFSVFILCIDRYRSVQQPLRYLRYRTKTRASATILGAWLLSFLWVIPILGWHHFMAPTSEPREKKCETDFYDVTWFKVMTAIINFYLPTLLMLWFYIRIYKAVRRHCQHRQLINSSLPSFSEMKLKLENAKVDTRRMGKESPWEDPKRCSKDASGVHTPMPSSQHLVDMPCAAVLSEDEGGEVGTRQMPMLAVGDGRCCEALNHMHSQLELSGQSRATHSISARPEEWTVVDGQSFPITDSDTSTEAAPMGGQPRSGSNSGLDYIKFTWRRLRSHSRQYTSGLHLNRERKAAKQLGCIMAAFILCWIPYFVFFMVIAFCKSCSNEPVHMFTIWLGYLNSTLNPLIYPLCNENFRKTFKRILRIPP

SMILES | Ki (Histamine H1 receptor) | Ki (Histamine H3 receptor) | other results
CN1CCc2ccc(OCCCN3CCC(=O)CC3)cc2C1=O | 0.176 µM | – | –
CC1CCN(CCCOc2ccc3c(c2)C(=O)N(C)CC3)CC1 | 0.032 µM | 0.279 µM | –
NC(=O)c1ccc(OCCCN2C[C@H]3CCC[C@H]3C2)cc1 | 0.0036 µM | 0.426 µM | Activity (Rattus norvegicus [1]): Active; Activity (Rattus norvegicus [2]): Active
CC(C)C[C@H](CN)CC(=O)O | – | – | Activity (Rattus norvegicus [3]): Active; Activity (Rattus norvegicus [4]): Active
CCN1CCc2ccc(OCCCN3CCOCC3)cc2C1=O | 0.252 µM | – | –
CN1CCc2ccc(OCCCN3CCC(O)CC3)cc2C1=O | 0.035 µM | 0.908 µM | –
CCN(CC)CCCOc1ccc2c(c1)C(=O)N(C)CC2 | 0.542 µM | – | –
CN1CCc2ccc(OCCCN3CCC(O)C3)cc2C1=O (stereo not drawn) | 0.112 µM | – | –
CC1CCCN1CCCOc1ccc2c(c1)C(=O)N(C)CC2 (stereo not drawn) | 0.026 µM | 0.068 µM | –
CN1CCc2ccc(OCCCN3CCOCC3)cc2C1=O | 0.0065 µM | 1.03 µM | LD50 at 24 h [5]: > 1000 mg/kg; Activity (Rattus norvegicus [6]): Dose-dependent effect; ED50 (Rattus norvegicus [6]): 1.3 mg/kg; Activity (Rattus norvegicus [7]): Dose-dependent effect; ED50 (Rattus norvegicus [7]): 2.4 mg/kg
CN1CCc2ccc(OCCCN3CCCCC3)cc2C1=O | 0.023 µM | 0.189 µM | –
CN1CCc2ccc(OCCCN3CCCC3)cc2C1=O | 0.039 µM | 0.169 µM | –
CC1CCCCN1CCCOc1ccc2c(c1)C(=O)N(C)CC2 (stereo not drawn) | 0.165 µM | – | –
CN1CCN(CCCOc2ccc3c(c2)C(=O)N(C)CC3)CC1 | 0.706 µM | – | –
CN1CCc2ccc(OCCN3CCOCC3)cc2C1=O | 1.21 µM | – | –
CN1CCc2ccc(OCC(O)CN3CCOCC3)cc2C1=O (stereo not drawn) | > 2 µM | – | –
CCN1CCN(CCCOc2ccc3c(c2)C(=O)N(C)CC3)CC1 | 1.1 µM | – | –
CN1CCc2ccc(OCCCCN3CCOCC3)cc2C1=O | 0.856 µM | – | –

— ChEMBL document CHEMBL4339210, “Synthesis and evaluation of histamine H3 receptor ligand based on lactam scaffold as agents for treating neuropathic pain” (Bioorg Med Chem Lett, 2019)
